The source of these data is ChEMBL document CHEMBL1151055, “A comparative SAR and computer modeling study of benzisothiazolone, mechanism-based inhibitors with porcine pancreatic and human leukocyte elastase” (Bioorg Med Chem Lett, 1996).

Experiment [1] has as its target T1, Chymotrypsin-like elastase family member 2A (Sus scrofa) (UniProt P08419).
T1 sequence (whole entry): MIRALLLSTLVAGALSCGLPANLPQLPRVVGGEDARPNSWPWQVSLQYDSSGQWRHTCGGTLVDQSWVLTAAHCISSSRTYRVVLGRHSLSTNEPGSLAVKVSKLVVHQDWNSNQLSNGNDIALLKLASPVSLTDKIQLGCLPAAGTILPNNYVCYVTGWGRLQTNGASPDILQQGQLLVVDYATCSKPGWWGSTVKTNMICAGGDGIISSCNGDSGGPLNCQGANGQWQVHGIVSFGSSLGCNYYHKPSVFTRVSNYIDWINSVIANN
The experiment is described as follows: Irreversible inhibitory activity against porcine pancreatic elastase.

In experiment [2] the target is T2, Neutrophil elastase (Homo sapiens) (UniProt P08246).
T2 sequence (whole entry): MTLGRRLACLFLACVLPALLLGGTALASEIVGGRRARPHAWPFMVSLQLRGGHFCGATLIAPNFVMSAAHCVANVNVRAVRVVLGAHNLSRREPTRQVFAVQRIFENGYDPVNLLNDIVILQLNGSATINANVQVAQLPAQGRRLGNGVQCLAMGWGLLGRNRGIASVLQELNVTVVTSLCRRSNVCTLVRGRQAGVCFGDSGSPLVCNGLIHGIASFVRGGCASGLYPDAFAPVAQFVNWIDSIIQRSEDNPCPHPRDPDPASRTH
Briefly: Irreversible inhibitory activity against human leukocyte elastase.

In the case of `COC(=O)CCC(=O)N[C@@H](C)C(=O)N[C@@H](C)C(=O)N1CCC[C@@H]1C(=O)N[C@H](C(=O)CCl)C(C)C`, the k on in experiment [1] is 830 M⁻¹ s⁻¹; in experiment [2], 3150 M⁻¹ s⁻¹.
